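GI50 = concentration required for 50% inhibition of growth. TGI: concentration producing complete growth inhibition.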
What was measured:
Test in all cases: NCI tumour cell line growth inhibition, 384-well format
[1] = system: 786-0 renal
[2] = system: A498 renal
[3] = system: BT-549 breast
[4] = system: CAKI-1 renal
[5] = system: CCRF-CEM leukemia
[6] = system: COLO 205 colon
[7] = system: DU-145 prostate
[8] = system: EKVX NSCLC
[9] = system: HCC-2998 colon
[10] = system: HCT-116 colon
[11] = system: HL-60(TB) leukemia
[12] = system: HOP-62 NSCLC
[13] = system: HOP-92 NSCLC
[14] = system: HT29 colon
[15] = system: IGROV1 ovarian
[16] = system: K-562 leukemia
[17] = system: KM12 colon
[18] = system: LOX IMVI melanoma
[19] = system: M14 melanoma
[20] = system: MCF7 breast
[21] = system: MDA-MB-231 breast
[22] = system: MDA-MB-435 melanoma
[23] = system: MDA-MB-468 breast
[24] = system: MOLT-4 leukemia
[25] = system: NCI-H226 lung
[26] = system: NCI-H23 lung
[27] = system: NCI-H322M lung
[28] = system: NCI-H460 NSCLC
[29] = system: NCI-H522 lung
[30] = system: OVCAR-3 ovarian
[31] = system: OVCAR-4 ovarian
[32] = system: OVCAR-8 ovarian
[33] = system: RPMI-8226 leukemia
[34] = system: SF-268 CNS
[35] = system: SF-295 CNS
[36] = system: SK-MEL-2 melanoma
[37] = system: SK-MEL-28 melanoma
[38] = system: SK-MEL-5 melanoma
[39] = system: SK-OV-3 ovarian
[40] = system: SNB-19 CNS
[41] = system: SNB-75 CNS
[42] = system: SR leukemia
[43] = system: SW-620 colon
[44] = system: T-47D breast
[45] = system: TK-10 renal
[46] = system: U251 glioblastoma
[47] = system: UACC-62 melanoma

Molecule CCNC(=O)c1cc2c(-c3cc(C(C)(C)O)ccc3Oc3c(C)cc(F)cc3C)cn(C)c(=O)c2[nH]1 has a GI50 [1] of 1.24 µM, a TGI [1] of 12.3 µM and a GI50 [2] of 1.87 µM. It also gave a TGI [2] of 13 µM, a GI50 [3] of 0.298 µM and a TGI [3] of 1.92 µM. It also gave a GI50 [4] of 0.265 µM, a TGI [4] of 10.7 µM and a GI50 [5] of 1.03 µM. It also gave a TGI [5] of 2.37 µM, a GI50 [6] of 1.1 µM and a TGI [6] of 2.75 µM. The GI50 [7] was 2.52 µM, the TGI [7] was 14.7 µM and the GI50 [8] was 3.23 µM. It also gave a TGI [8] of 13.9 µM, a GI50 [9] of 0.542 µM and a TGI [9] of 2.03 µM. It also gave a GI50 [10] of 1.37 µM, a TGI [10] of 10.3 µM and a GI50 [11] of 0.145 µM. The TGI [11] was 0.618 µM, the GI50 [12] was 1.03 µM and the TGI [12] was 4.95 µM. The GI50 [13] was 1.43 µM, the TGI [13] was 11.8 µM and the GI50 [14] was 1.24 µM. It also gave a TGI [14] of 13.4 µM, a GI50 [15] of 0.508 µM and a TGI [15] of 2.29 µM. For the same molecule, the GI50 [16] was 0.879 µM, the TGI [16] was 10.7 µM and the GI50 [17] was 1.42 µM. It also gave a TGI [17] of 11.2 µM, a GI50 [18] of 0.507 µM and a TGI [18] of 1.84 µM. It also gave a GI50 [19] of 1.59 µM, a TGI [19] of 16.9 µM and a GI50 [20] of 0.0484 µM. The TGI [20] was 1.82 µM, the GI50 [21] was 0.505 µM and the TGI [21] was 12.1 µM. It also gave a GI50 [22] of 5.22 µM, a TGI [22] of 19.1 µM and a GI50 [23] of 0.358 µM. It also gave a TGI [23] of 2.08 µM, a GI50 [24] of 0.432 µM and a TGI [24] of 1.9 µM. It also gave a GI50 [25] of 1.26 µM, a TGI [25] of 11.5 µM and a GI50 [26] of 0.725 µM. It also gave a TGI [26] of 2.81 µM, a GI50 [27] of 1.61 µM and a TGI [27] of 11.9 µM. The GI50 [28] was 2.87 µM, the TGI [28] was 12.4 µM and the GI50 [29] was 0.0176 µM. For the same molecule, the TGI [29] was 0.933 µM, the GI50 [30] was 0.602 µM and the TGI [30] was 2.46 µM. For the same molecule, the GI50 [31] was 0.201 µM, the TGI [31] was 0.87 µM and the GI50 [32] was 1.12 µM. It also gave a TGI [32] of 2.55 µM, a GI50 [33] of 0.0125 µM and a TGI [33] of 0.693 µM. For the same molecule, the GI50 [34] was 2.29 µM, the TGI [34] was 11.4 µM and the GI50 [35] was 3 µM. It also gave a TGI [35] of 11.1 µM, a GI50 [36] of 0.139 µM and a TGI [36] of 2.85 µM. The GI50 [37] was 2.96 µM, the TGI [37] was 15.9 µM and the GI50 [38] was 1.27 µM. For the same molecule, the TGI [38] was 3.68 µM, the GI50 [39] was 0.412 µM and the TGI [39] was 3.74 µM. It also gave a GI50 [40] of 2.01 µM, a TGI [40] of 13.2 µM and a GI50 [41] of 1.5 µM. For the same molecule, the TGI [41] was 10.3 µM, the GI50 [42] was 0.0328 µM and the TGI [42] was 1.3 µM. For the same molecule, the GI50 [43] was 2.97 µM, the TGI [43] was 15.6 µM and the GI50 [44] was 1.31 µM. It also gave a TGI [44] of 8.3 µM, a GI50 [45] of 0.366 µM and a TGI [45] of 2.96 µM. For the same molecule, the GI50 [46] was 2.54 µM, the TGI [46] was 10.9 µM and the GI50 [47] was 0.152 µM. The TGI [47] was 4.06 µM.

— PubChem BioAssay (NCI)
